The record followed here is patent US20260132128A1, “COMPOUND FOR RECOVERING P53 MUTATION FUNCTION AND USE THEREOF” (SHENZHEN ZHONGGE BIOLOGICAL TECHNOLOGY CO., LTD., priority 2022, published 2026).

One may read the efflux ratio as the permeability from basolateral to apical divided by that in the opposite direction, in the common usage. The term Papp A→B denotes how fast a substance crosses the layer from the apical side. Higher therefore signals fast passage. The Papp B→A is the apparent permeability from the basolateral to the apical side of a cell layer. What is called AUC is concentration integrated over time. One may read the Cmax as the maximum level reached in the sampled fluid or tissue. As a reminder, the clearance is the rate of elimination divided by the concentration. Lower therefore signals inefficient removal.

Series [1] can be described thus: Caco-2 cell permeability test. It counts as in vitro ADME. Particulars: human, pH 7.4, Caco-2, 10 μM; for Papp A→B at 120 min, 10 μM: A to B; for Papp B→A at 120 min, 10 μM: B to A. An outline of the steps:
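Caco-2 monolayers grown 21–28 days, integrity checked by TEER; test compound at 10 μM in HBSS (10 mM HEPES, pH 7.4) with 0.5% BSA dosed apical or basolateral. After 120 min at 37 °C, A→B and B→A transport quantified by LC-MS/MS; Papp, efflux ratio and recovery calculated.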

A short description of series [2]: Pharmacokinetic test in mice. It counts as in vivo. The conditions noted are these: male, ICR, mouse, plasma; for AUC / Cmax: 25 mg/kg, po 25 mpk; for clearance: 2.5 mg/kg, iv 2.5 mpk. On the procedure:
ICR male mice (15 to 35 g, 5 to 10 weeks old, Shanghai Xipuer-Bikai Experimental Animal Co., Ltd.) were selected as test animals in this study. The LC-MS/MS method was used to quantitatively determine drug concentrations in the plasma of mice at different time points after intravenous injection or oral gavage administration of the test compound to evaluate the pharmacokinetic characteristics of the compound in mice. The clear solution of the test compound was injected into ICR mice via the tail vein (without fasting, solvent: 40% hydroxypropyl-β-cyclodextrin) and administered to ICR mice by oral gavage (fasting for 10 to 14 hours, free drinking water, solvent: 0.2% hydroxypropyl cellulose, 0.5% Tween 80). For intravenous administration, blood was collected from the submandibular venous plexus at 0.033, 0.083, 0.25, 0.5, 1, 2, 4, 8, and 24 hours after administration, placed in an anticoagulant tube with EDTA-K2 (Jiangsu Kangjian Medical Supplies Co., Ltd.), mixed, and centrifuged at 2-8° C., 6800 g for 6 minutes to obtain plasma; for oral gavage administration, blood was collected from the submandibular venous plexus at 0.083, 0.25, 0.5, 1, 2, 4, 6, 8, and 24 hours after administration, placed in an anticoagulant tube with EDTA-K2 (Jiangsu Kangjian Medical Supplies Co., Ltd.), mixed, and centrifuged at 2-8° C., 6800 g for 6 minutes to obtain plasma. The blood drug concentration was determined by LC-MS/MS, and the relevant pharmacokinetic parameters were calculated by the non-compartmental linear logarithmic trapezoidal method using Phoenix WinNonlin™ Version 7.0 (Pharsight, USA) pharmacokinetic software.

A short description of series [3]: Liver microsome stability test, mouse (MLM). In kind it is in vitro ADME. Particulars: mouse liver microsomes, NADPH; read-out: T1/2 (min) Mouse. The protocol: (§1) The 10 mM test compound/ketanserin (Energy Chemical, Cat. No. E020711) stock solution was diluted with acetonitrile to 0.5 mM compound/reference compound. The frozen 100 mM NADPH (MCE, Cat. No. HYF003/CS-4998) was diluted with phosphate buffer solution to a concentration of 6 mM; 20 mg/mL HLM (BioIVT, Cat. No. X008067) or MLM (BioIVT, Cat. No. M00501) was diluted with phosphate buffer solution to a concentration of 0.75 mg/ml, and added to a 96-round well plate, respectively, and shaken evenly on an oscillator at 600 rpm. The above oscillated samples were pipetted 3 times with an electric pipettor and dispensed into a new 96-well plate (containing NADPH group (n=2), NADPH-free group was added at 0 and 45 min (n=1)), and there were a total of 5 groups of 0, 5, 15, 30 and 45 min, respectively. After pre-incubation of the 5 groups of samples at 37° C. for 5 min, glacial acetonitrile was quickly added to the 0 min group for precipitation, and after rapid vortexing, K-Buffer or NADPH was added with an electric pipettor. The remaining groups were sequentially added with 6 mM NADPH to start the reaction in the order of 45, 30, 15 and 5 min samples, and K-Buffer solution was added to the NADPH-free group. After mixing at 1000 rpm in an oscillating mixer for 10 s, they were continuously incubated at 37° C. for the corresponding time. The reaction was terminated by quickly adding glacial acetonitrile internal standard using an electric pipettor; after vortexing at 900 rpm for 10 seconds, heat sealing was performed, oscillation was performed on an oscillator for 10 minutes, centrifugation was performed at 4000 rpm for 50 minutes, the supernatant was collected and diluted with pure water, and the test compound and the reference compound were quantified by LC-MS/MS analysis.

A short description of series [4]: Liver microsome stability test, human (HLM). In kind it is in vitro ADME. The conditions noted are these: human liver microsomes, NADPH; read-out: T1/2 (min) Human. On the procedure: as §1
(Liver microsomes are a subcellular fraction often used to study metabolism.)

Consider `CNC(=O)c1ccc(NCC#Cc2nc3c(N[C@@H]4CCN(C)C[C@@H]4F)cccn3c2CC(F)(F)F)c(OC)c1` [Compound 5], for which, in series [1], the efflux ratio at 120 min, 10 μM worked out at 8.27; the Papp A→B at 120 min, 10 μM is 2.8 ×10⁻⁶ cm/s; the Papp B→A at 120 min, 10 μM came to 23.1 ×10⁻⁶ cm/s. In addition, in series [2], the AUC was found to be 4070 ng·h/mL, the peak level (Cmax) was 1140 ng/mL and the clearance is 54 mL/min/kg.
Take `COc1cc(C(=O)NC2CC2)ccc1NCC#Cc1nc2c(NC3CC[C@@H](N4CC5(COC5)C4)C[C@@H]3F)cccn2c1CC(F)(F)F` (stereo partly drawn) [Compound 54]: in series [3], the half-life was determined as 78.4 min. Moreover, in series [1], the efflux ratio at 120 min, 10 μM is 2.24; the Papp A→B at 120 min, 10 μM turned out to be 2.3 ×10⁻⁶ cm/s; the Papp B→A at 120 min, 10 μM is 5.16 ×10⁻⁶ cm/s. In addition, the half-life in series [4] was found to be 32 min.
As for `[2H]C([2H])([2H])NC(=O)c1ccc(NCC#Cc2cc3c(NC4CCC(N5CC6(COC6)C5)CC4F)cccn3c2CC(F)(F)F)c(OC([2H])([2H])[2H])c1` (single isomer, unassigned) [Compound 74d], the half-life in series [3] was 22 min. Further, the half-life in series [4] is 55.8 min. In series [2], this compound gave an AUC of 17400 ng·h/mL, a maximum concentration (Cmax) of 4160 ng/mL and a clearance of 17 mL/min/kg.
As to `CNC(=O)c1ccc(NCC#Cc2nc3c(NC4CCC(N5CC6(COC6)C5)CC4F)cccn3c2CC(F)(F)F)c(OC)c1` (single isomer, unassigned) [Compound 35-6i], the half-life in series [3] stood at 19.2 min. For the same compound, in series [1], the efflux ratio at 120 min, 10 μM amounted to 4.31; the Papp A→B at 120 min, 10 μM turned out to be 2.66 ×10⁻⁶ cm/s; the Papp B→A at 120 min, 10 μM was 11.4 ×10⁻⁶ cm/s. In series [2], the AUC was found to be 19700 ng·h/mL, the concentration peaked (Cmax) at 6860 ng/mL and the clearance amounted to 20 mL/min/kg.
`[2H]C([2H])([2H])NC(=O)c1ccc(NCC#Cc2nc3c(NC4CC[C@@H](N5CC6(COC6)C5)C[C@@H]4F)cccn3c2CC(F)(F)F)c(OC([2H])([2H])[2H])c1` (stereo partly drawn) [Compound 64]: the half-life in series [3] came out at 55 min. In series [1], the efflux ratio at 120 min, 10 μM is 1.22; the apparent permeability from apical to basolateral (Papp A→B) at 120 min, 10 μM was 4.92 ×10⁻⁶ cm/s; the Papp B→A at 120 min, 10 μM turned out to be 5.99 ×10⁻⁶ cm/s. Besides, the half-life in series [4] is 44 min.
On the same counts, the results for `CNC(=O)c1ccc(NCC#Cc2nc3c(NC4CC[C@@H](N5CC6(COC6)C5)C[C@@H]4F)cccn3c2CC(F)(F)F)c(OCF)c1` (stereo partly drawn) [Compound 58] are 33 min, 3.09, 2.41 ×10⁻⁶ cm/s, 7.46 ×10⁻⁶ cm/s and 37.5 min.
